Reference: patent publication US20190069548A1, “AGENT FOR CONTROLLING THRIPS AND USE THEREOF” (RIKEN, priority 2016, published 2019)

Assays:
Type in all cases: in vivo
[1] = test system: Frankliniella occidentalis; experiment: Two-plant choice test of thrips repellency after spraying (Examples 1 and 2); conditions: for repellency against thrips (number of thrips on plant vs water control): 100 μM solution sprayed; for repellency against thrips (number of thrips on plant vs water control) / repellency against Frankliniella occidentalis: thrips released two days after, counted 24 h later; for repellency against Frankliniella occidentalis: 100 μM PDJ sprayed
Experimental: Then, 100 μM PDJ solution was directly sprayed on one of the two plant individuals by use of a spraying device. On the other one of the two plant individuals, only water was sprayed similarly. This plant individual on which only water was sprayed was a control. Two days after the above treatment, 30 female adult thrips of Frankliniella occidentalis were released at a middle point between the two plant individuals. Twenty-four hours after that release of Frankliniella occidentalis, the number of thrips on each plant individual was counted so that which one of the plant individuals the thrips had moved to was found. With use of 100 μM JA solution, a similar experiment was carried out. Further, similar experiments with use of the 100 μM PDJ solution and the 100 μM JA solution were carried out on tomato (Solanum lycopersicum) three weeks after seeding.
(§1) Then, 100 μM PDJ solution was sprayed on an entire aerial part of only one of the two plant individuals by use of a spraying device. On the other one of the two plant individuals, only water was sprayed by a similar method. This plant individual on which only water was sprayed was a control. Two days after the above spraying, 30 female adult thrips of Frankliniella occidentalis were released at a middle point between the two plant individuals. Twenty-four hours after that release of Frankliniella occidentalis, the number of thrips on each plant individual was counted so that which one of the plant individuals the thrips had moved to was found.
Further, the target plant was changed to crown daisy (Glebionis coronaria) of the family Asteraceae, and repellency against thrips was studied similarly.

Thrips tabaci Lindeman = experiment: Two-plant choice test of thrips repellency after spraying (Example 3); conditions: 100 μM PDJ sprayed, thrips released two days after, counted 24 h later
Experimental: Then, 100 μM PDJ was sprayed on an entire aerial part of only one of the two plant individuals by use of a spraying device. On the other one of the two plant individuals, only water was sprayed by a similar method. This plant individual on which only water was sprayed was a control. Two days after the above spraying, 30 female adult thrips of Thrips tabaci Lindeman were released at a middle point between the two plant individuals. Twenty-four hours later, the number of Thrips tabaci Lindeman on each plant individual was counted so that which one of the plant individuals the thrips had moved to was found. As a result, with regard to the green pepper (bell pepper) (Capsicum annuum L. ‘grossum’), an attachment rate of Thrips tabaci Lindeman was approximately 40% relative to that of the control. Meanwhile, with regard to cabbage (Brassica oleracea var. capitata), an attachment rate of Thrips tabaci Lindeman was approximately 40% relative to that of the control.

Frankliniella intonsa = experiment: Two-plant choice test of thrips repellency after spraying (Example 4); conditions: 100 μM PDJ sprayed, thrips released two days after, counted 24 h later
Experimental: as §1, with “intonsa” for “occidentalis”, “intonsa,” for “occidentalis,”

[2] = test system: Frankliniella occidentalis; experiment: Repeated spraying on tomato, thrips count on third and higher-order true leaves (Example 5); conditions: counted forty days after release
Experimental: Then, 100 μM PDJ solution was directly prayed on an entire aerial part of only one of the two plant individuals by use of a spraying device. The above spraying was carried out 3 times, 4 times or 5 times at intervals of 5 to 7 days. On the other one of the two plant individuals, only water was sprayed by a similar method. This plant individual on which only water was sprayed was a control. Four days after the last spraying, 30 female adult thrips of Frankliniella occidentalis were released at a middle point between the two plant individuals. Forty days after that release of Frankliniella occidentalis, the number of thrips on the third and higher-order true leaves was counted. […] In the case of the plant individual on which the PDJ solution was sprayed 3 times, the total number of thrips attached to the third and higher-order true leaves was approximately 20% relative to that of the control. In the case of the plant individual on which the PDJ solution was sprayed 4 times or 5 times, the total number of thrips attached to the third and higher-order true leaves was 0% relative to that of the control. In this way, it was clarified that in a case where spraying is carried out 4 times or 5 times at intervals of 5 days to 7 days, repellency against thrips is higher than that in a case where spraying is carried out 3 times.

[3] = test system: Frankliniella occidentalis; experiment: Spraying time relative to development of fourth true leaf of tomato, thrips count (Examples 6 and 7); conditions: counted six days after release
Experimental: Then, 100 μM PDJ solution was sprayed on an entire aerial part of only one of the two plant individuals by use of a spraying device. On the other one of the two plant individuals, only water was sprayed by a similar method. This plant individual on which only water was sprayed was a control. The above spraying was carried out at time points 3 days, 7 days, 10 days and 15 days after the start of development of the fourth true leaf. Four days after the above spraying, 30 female adult thrips of Frankliniella occidentalis were released at a middle point between the two plant individuals. Six days after that release of Frankliniella occidentalis, the number of thrips on the fourth true leaf was counted. […] The number of thrips attached to the fourth true leaf was approximately 5% of that of the control in the case of the spraying carried out at the time point 3 days after the start of the development of the fourth true leaf, approximately 10% of that of the control in the case of the spraying carried out at the time point 7 days after the start of the development, approximately 40% of that of the control in the case of the spraying carried out at the time point 10 days after the start of the development, and approximately 50% of that of the control in the case of the spraying carried out at the time point 15 days after the start of the development. In this way, it was clarified that in a case where the spraying was carried out within 7 days from the start of development of a new leaf of a plant, repellency against thrips given to the plant is higher than that in a case where spraying is carried out more than 7 days after the start of the development. In a greenhouse whose room temperature was kept in a range of 20° C. to 25° C., two plant individuals of tomato (Solanum lycopersicum) (approximately 1 to 1.5 months after seeding), which had developed 3 true leaves, were placed apart from each other such that a distance of […] was provided and kept between these plant individuals. Then, 100 μM PDJ solution was sprayed on an entire aerial part of only one of the two plant individuals by use of a spraying device. At this time point, the fourth true leaf was not yet developed. On the other one of the two plant individuals, only water was sprayed by a similar method. This plant individual on which only water was sprayed was a control. Four days after the above spraying, 30 female adult thrips of Frankliniella occidentalis were released at a middle point between the two plant individuals. Six days after that release of Frankliniella occidentalis, the number of thrips on the fourth true leaf was counted. […] The number of thrips attached to the fourth true leaf was approximately 100% of that of the control.

[4] = 100 μM PDJ sprayed when fourth true leaf was not yet developed (Example 7)

In the case of `CC/C=C\CC1C(=O)CCC1CC(=O)OC` (stereo not shown) [JA, methyl jasmonate, reference compound], the “repellency against thrips (number of thrips on plant vs water control)” value ([1]; Arabidopsis thaliana) is reported as “can give repellency against thrips” and the “repellency against thrips (number of thrips on plant vs water control)” value ([1]; tomato (Example 1)) is reported as “can give repellency against thrips”.

With prohydrojasmon [PDJ] the “repellency against thrips (number of thrips on plant vs water control)” value ([1]; Arabidopsis thaliana) was “can give repellency against thrips”, the “repellency against Frankliniella occidentalis” value ([1]; cabbage) was “sufficient repellency” and the “repellency against Frankliniella occidentalis” value ([1]; chrysanthemum) was “sufficient repellency”. For the same molecule, the repellency against thrips ([1]; crown daisy (Glebionis coronaria), studied similarly to Example 2) was “repellency against thrips is given”, the “repellency against Frankliniella occidentalis” value ([1]; cucumber) was “sufficient repellency” and the “repellency against Frankliniella occidentalis” value ([1]; green pepper) was “sufficient repellency”. For the same molecule, the “repellency against Frankliniella occidentalis” value ([1]; strawberry) was “sufficient repellency”, the “repellency against thrips (number of thrips on plant vs water control)” value ([1]; tomato (Example 1)) was “can give repellency against thrips” and the “repellency against Frankliniella occidentalis” value ([1]; tomato (Example 2)) was “sufficient repellency”. For the same molecule, the “attachment rate of Thrips tabaci Lindeman relative to that of the control” value (Thrips tabaci Lindeman; cabbage) was “approximately 40%”, the “attachment rate of Thrips tabaci Lindeman relative to that of the control” value (Thrips tabaci Lindeman; green pepper) was “approximately 40%” and the “repellency against Frankliniella intonsa” value (Frankliniella intonsa; cabbage) was “sufficient repellency”. The “repellency against Frankliniella intonsa” value (Frankliniella intonsa; chrysanthemum) was “sufficient repellency”, the “repellency against Frankliniella intonsa” value (Frankliniella intonsa; cucumber) was “sufficient repellency” and the “repellency against Frankliniella intonsa” value (Frankliniella intonsa; green pepper) was “sufficient repellency”. The “repellency against Frankliniella intonsa” value (Frankliniella intonsa; strawberry) was “sufficient repellency”, the “repellency against Frankliniella intonsa” value (Frankliniella intonsa; tomato) was “sufficient repellency” and the “total number of thrips attached to the third and higher-order true leaves relative to that of the control” value ([2]; 100 μM PDJ sprayed 3 times at intervals of 5 to 7 days) was “approximately 20%”. The “total number of thrips attached to the third and higher-order true leaves relative to that of the control” value ([2]; 100 μM PDJ sprayed 4 times at intervals of 5 to 7 days) was 0%, the “total number of thrips attached to the third and higher-order true leaves relative to that of the control” value ([2]; 100 μM PDJ sprayed 5 times at intervals of 5 to 7 days) was 0% and the “number of thrips attached to the fourth true leaf, of that of the control” value (“number … of that of the control” for short) ([3]; 100 μM PDJ sprayed 3 days after start of development of fourth true leaf) was “approximately 5%”. The “number … of that of the control” value ([3]; 100 μM PDJ sprayed 7 days after start of development of fourth true leaf) was “approximately 10%”, the “number … of that of the control” value ([3]; 100 μM PDJ sprayed 10 days after start of development of fourth true leaf) was “approximately 40%” and the “number … of that of the control” value ([3]; 100 μM PDJ sprayed 15 days after start of development of fourth true leaf) was “approximately 50%”. The “number … of that of the control” value [3, 4] was “approximately 100%” and the “total number of thrips attached to the first to third true leaves vs control” value [3, 4] was “much smaller than that of the control”.
